The record followed here is patent US9938258B2 (Karyopharm Therapeutics Inc., priority 2012, dated 2018).

In one assay the test system is 3T3 cells. As to the kind of experiment: MTT cell proliferation assay, 3T3. It is filed as cell-based, mouse. In a few lines: (§1)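 Read-out: MTT reduction to formazan, solubilised and measured at 490 nm after ~4 h with MTT; inhibition (%) = (1-(ODo/OD))×100 relative to negative control. Seeding was 5,000-10,000 cells/well with overnight attachment. Eight test concentrations spanned 1 nM-30 μM; mostly duplicate, mean ± SE.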

For a further assay, the system named is MS751 cells. As to the kind of experiment: MTT cell proliferation assay, MS751. It is filed as cell-based, human. In a few lines:
as §1
A general note: Tetrazolium assays rely on reduction of a dye to a coloured formazan, in cell work by metabolically active cells.

The subject of the next assay is Z138 cells. As to the kind of experiment: MTT cell proliferation assay, Z138. It is filed as cell-based. In a few lines:
as §1

The mark [1] stands for this setting: Mus musculus, NIH3T3, 3T3 cells, eight concentrations 1 nM to 30 μM, incubation approximately 64-72 hours, read-out: MTT Assay IC50, 3T3.
The mark [2] stands for this setting: Homo sapiens, MS751, MS751 cells, eight concentrations 1 nM to 30 μM, incubation approximately 64-72 hours, read-out: MTT Assay IC50, MS751.
[3] abbreviates: Homo sapiens, Z-138, Z138 cells, eight concentrations 1 nM to 30 μM, incubation approximately 64-72 hours, read-out: MTT Assay IC50, Z138.
Where [4] appears, read: Mus musculus, NIH3T3, 3T3 cells, approximately 64-72 hours incubation, read-out: MTT Assay IC50, 3T3.
[5] abbreviates: Homo sapiens, MS751, MS751 cells, approximately 64-72 hours incubation, read-out: MTT Assay IC50, MS751.
[6] abbreviates: Homo sapiens, Z-138, Z138 cells, approximately 64-72 hours incubation, read-out: MTT Assay IC50, Z138.

Where a name gives a salt, the structure may show the parent alone. Read-outs that look alike come from different tables or passages of the source. Bounds are passed on as bounds.

In general, IC50 refers to the concentration at which inhibition is half-maximal. Consider `CC(=O)c1ccc(-c2cc(Cl)c3c(c2)CC(CNC(=O)/C=C/c2ccc(N)nc2)O3)s1` (single isomer, unassigned) [Compound 309, (E)-N-((5-(5-acetylthiophen-2-yl)-7-chloro-2,3-dihydrobenzofuran-2-yl)methyl)-3-(6-aminopyridin-3-yl)acrylamide], for which the IC50 with 3T3 cells (3T3 cells, approximately 64-72 hours incubation, read-out: MTT Assay IC50, 3T3) was 5 to 30 µM; with MS751 cells (MS751 cells, approximately 64-72 hours incubation, read-out: MTT Assay IC50, MS751), 0.1 to 5 µM; in the assay with Z138 cells (Z138 cells, approximately 64-72 hours incubation, read-out: MTT Assay IC50, Z138), less than 0.1 µM.

On to `O=C(/C=C/c1cccnc1)NCC1Cc2cc(-c3ccccc3)cc(Cl)c2O1` (stereo not drawn) [Compound 67, (E)-N-((7-chloro-5-phenyl-2,3-dihydrobenzofuran-2-yl)methyl)-3-(pyridin-3-yl)acrylamide], for which the half-maximal inhibitory concentration (IC50) in the assay on 3T3 cells (setting [1]) fell in the range of 5 to 30 µM; in the assay with MS751 cells (setting [2]) it was 0.1 to 5 µM; in the assay on Z138 cells (setting [3]), 0.1 to 5 µM.

For `Nc1ccc(/C=C/C(=O)NCC2Cc3cc(-c4ccc(C(=O)N5CCNCC5)nc4)cc(Cl)c3O2)cn1` (stereo not drawn) [Compound 342, (E)-3-(6-aminopyridin-3-yl)-N-((7-chloro-5-(6-(piperazine-1-carbonyl)pyridin-3-yl)-2,3-dihydrobenzofuran-2-yl)methyl)acrylamide], the figures for the 50% inhibitory concentration (IC50) in the assay with 3T3 cells (setting [4]), with MS751 cells (setting [5]) and with Z138 cells (setting [6]) were 0.1 to 5 µM, 0.1 to 5 µM and more than 30 µM, respectively.

Regarding `Nc1ccc(CCC(=O)NCC2Cc3cc(-c4ccc(C(=O)N5CCNCC5)cc4)cc(Cl)c3O2)cn1` (stereo not drawn) [Compound 920, 3-(6-aminopyridin-3-yl)-N-((7-chloro-5-(4-(piperazine-1-carbonyl)phenyl)-2,3-dihydrobenzofuran-2-yl)methyl)propanamide], the concentration for half-maximal inhibition (IC50) in the assay with 3T3 cells (setting [4]), in the assay on MS751 cells (setting [5]) and in the assay on Z138 cells (setting [6]) was more than 30 µM throughout.

Turning to `COc1cc(-c2ccc(C(=O)N3CCOCC3)cc2)cc2c1OC(CNC(=O)/C=C/c1ccc(N)nc1)C2` (stereo not drawn) [Compound 345, (E)-3-(6-aminopyridin-3-yl)-N-((7-methoxy-5-(4-(morpholine-4-carbonyl)phenyl)-2,3-dihydrobenzofuran-2-yl)methyl)acrylamide], the IC50 with 3T3 cells (Mus musculus, NIH3T3, read-out: MTT Assay IC50, 3T3) was less than 0.1 µM; in the assay with MS751 cells (Homo sapiens, MS751, read-out: MTT Assay IC50, MS751), less than 0.1 µM; in the assay on Z138 cells (Homo sapiens, Z-138, read-out: MTT Assay IC50, Z138), 0.1 to 5 µM.

For `CC(=O)c1ccc(-c2ccc(Cl)c3c2CC(CNC(=O)/C=C/c2ccc(N)nc2)O3)s1` (stereo not drawn) [Compound 218, hydrochloride], the IC50 is 5 to 30 µM in the assay with 3T3 cells (setting [4]), less than 0.1 µM in the assay on MS751 cells (setting [5]) and less than 0.1 µM with Z138 cells (setting [6]).

For the molecule `CC(=O)c1ccc(-c2cc(Cl)c3c(c2)CC(CNC(=O)/C=C/c2c(C)nn(-c4ccc(F)cc4)c2Cl)O3)s1` (stereo not drawn) [Compound 284, (E)-N-((5-(5-acetylthiophen-2-yl)-7-chloro-2,3-dihydrobenzofuran-2-yl)methyl)-3-(5-chloro-1-(4-fluorophenyl)-3-methyl-1H-pyrazol-4-yl)acrylamide], the IC50 with 3T3 cells (setting [4]), with MS751 cells (setting [5]) and in the assay on Z138 cells (setting [6]) was more than 30 µM each time.

Regarding `Nc1ccc(CNC(=O)/C=C/C2Cc3cc(-c4ccc(S(=O)(=O)N5CC(F)(F)C5)cc4)cc(Cl)c3O2)cn1` (stereo not drawn) [Compound 363, (E)-N-((6-aminopyridin-3-yl)methyl)-3-(7-chloro-5-(4-(3,3-difluoroazetidin-1-ylsulfonyl)phenyl)-2,3-dihydrobenzofuran-2-yl)acrylamide], the results for the IC50 in the assay on 3T3 cells (setting [4]), with MS751 cells (setting [5]) and in the assay on Z138 cells (setting [6]) were 5 to 30 µM, more than 30 µM and more than 30 µM, respectively.

For `CC(=O)c1ccc(-c2cc(Cl)c3c(c2)CC(CNC(=O)/C=C/c2cccnc2)O3)s1` (stereo not drawn) [Compound 27, (E)-N-((5-(5-acetylthiophen-2-yl)-7-chloro-2,3-dihydrobenzofuran-2-yl)methyl)-3-(pyridin-3-yl)acrylamide], the IC50 was 0.1 to 5 µM in the assay with 3T3 cells (setting [1]), less than 0.1 µM in the assay with MS751 cells (setting [2]) and less than 0.1 µM in the assay with Z138 cells (setting [3]).

For the molecule `Nc1ccc(/C=C/C(=O)NCC2Cc3cc(-c4c(F)cc(C(=O)N5CCOCC5)cc4F)cc(Cl)c3O2)cn1` (stereo not drawn) [Compound 902, (E)-3-(6-aminopyridin-3-yl)-N-((7-chloro-5-(2,6-difluoro-4-(morpholine-4-carbonyl)phenyl)-2,3-dihydrobenzofuran-2-yl)methyl)acrylamide], the half-inhibitory concentration (IC50) with 3T3 cells (setting [4]) was 0.1 to 5 µM; in the assay on MS751 cells (setting [5]) it was less than 0.1 µM; with Z138 cells (setting [6]), less than 0.1 µM.

In the case of `CC1(F)CN(C(=O)c2ccc(-c3cc(Cl)c4c(c3)CC(/C=C/C(=O)NCc3ccc(N)nc3)O4)cc2)C1` (stereo not drawn) [Compound 366, (E)-N-((6-aminopyridin-3-yl)methyl)-3-(7-chloro-5-(4-(3-fluoro-3-methylazetidine-1-carbonyl)phenyl)-2,3-dihydrobenzofuran-2-yl)acrylamide], the results for the 50% inhibitory concentration (IC50) in the assay with 3T3 cells (setting [4]), in the assay with MS751 cells (setting [5]) and with Z138 cells (setting [6]) were 0.1 to 5 µM, more than 30 µM and more than 30 µM, respectively.

For `O=C(/C=C/c1cccnc1)NCC1Cc2cc(-c3ccccc3F)cc(Cl)c2O1` (stereo not drawn) [Compound 18, (E)-N-((7-chloro-5-(2-fluorophenyl)-2,3-dihydrobenzofuran-2-yl)methyl)-3-(pyridin-3-yl)acrylamide], the IC50 is 5 to 30 µM in the assay on 3T3 cells (setting [1]), 0.1 to 5 µM with MS751 cells (setting [2]) and 0.1 to 5 µM in the assay with Z138 cells (setting [3]).

Consider `CC(=O)c1ccc(-c2cc(Cl)c3c(c2)CC(CNC(=O)/C=C/c2cncc(F)c2)O3)s1` (stereo not drawn) [Compound 298, (E)-N-((5-(5-acetylthiophen-2-yl)-7-chloro-2,3-dihydrobenzofuran-2-yl)methyl)-3-(5-fluoropyridin-3-yl)acrylamide], for which the concentration for half-maximal inhibition (IC50) is more than 30 µM in the assay with 3T3 cells (setting [4]), more than 30 µM with MS751 cells (setting [5]) and 0.1 to 5 µM in the assay on Z138 cells (setting [6]).

As for `CC(=O)c1ccc(-c2cc(Cl)c3c(c2)CC(CNC(=O)/C(C)=C/c2cccnc2)O3)s1` (stereo not drawn) [Compound 262, (E)-N-((5-(5-acetylthiophen-2-yl)-7-chloro-2,3-dihydrobenzofuran-2-yl)methyl)-2-methyl-3-(pyridin-3-yl) acrylamide], the results for the IC50 in the assay with 3T3 cells (setting [1]), in the assay with MS751 cells (setting [2]) and in the assay with Z138 cells (setting [3]) were more than 30 µM, 5 to 30 µM and 5 to 30 µM, respectively.

As for `CC(=O)c1ccc(-c2cc(Cl)c3c(c2)CC(CNC(=O)/C=C/c2ccc(-c4ccc(F)cc4)s2)O3)s1` (stereo not drawn) [Compound 297, (E)-N-((5-(5-acetylthiophen-2-yl)-7-chloro-2,3-dihydrobenzofuran-2-yl)methyl)-3-(5-(4-fluorophenyl)thiophen-2-yl)acrylamide], the concentration for half-maximal inhibition (IC50) in the assay with 3T3 cells (setting [4]), in the assay on MS751 cells (setting [5]) and in the assay on Z138 cells (setting [6]) was more than 30 µM in each case.

Regarding `Nc1ccc(/C=C/C(=O)NCC2Cc3c(-c4cc(F)c(C(=O)N5CCOCC5)c(F)c4)ccc(Cl)c3O2)cn1` (stereo not drawn) [Compound 908, (E)-3-(6-Aminopyridin-3-yl)-N-((7-chloro-4-(3,5-difluoro-4-(morpholine-4-carbonyl)phenyl)-2,3-dihydrobenzofuran-2-yl)methyl)acrylamide], the concentration for half-maximal inhibition (IC50) with 3T3 cells (setting [4]) was 0.1 to 5 µM; in the assay with MS751 cells (setting [5]) it was less than 0.1 µM; in the assay with Z138 cells (setting [6]) it was less than 0.1 µM.

For `CC(=O)c1ccc(-c2cc(Cl)c3c(c2)CC(CNC(=O)/C=C/c2nc4ccccc4o2)O3)s1` (stereo not drawn) [Compound 290, (E)-N-((5-(5-acetylthiophen-2-yl)-7-chloro-2,3-dihydrobenzofuran-2-yl)methyl)-3-(benzo[d]oxazol-2-yl)acrylamide], the IC50 with 3T3 cells (setting [4]), with MS751 cells (setting [5]) and in the assay on Z138 cells (setting [6]) was more than 30 µM each time.

Take `CC(=O)c1ccc(-c2cc(Cl)c3c(c2)CC(CNC(=O)/C=C/c2c(Cl)nc4sccn24)O3)s1` (stereo not drawn) [Compound 276, (E)-N-((5-(5-acetylthiophen-2-yl)-7-chloro-2,3-dihydrobenzofuran-2-yl)methyl)-3-(6-chloroimidazo[2,1-b]thiazol-5-yl)acrylamide]: the IC50 in the assay with 3T3 cells (setting [1]), with MS751 cells (setting [2]) and in the assay with Z138 cells (setting [3]) was more than 30 µM in each case.

Regarding `CC(=O)c1ccc(-c2cc(Cl)c3c(c2)CC(CNC(=O)/C=C/c2ccc(N)cc2)O3)s1` (stereo not drawn) [Compound 114, (E)-N-((5-(5-acetylthiophen-2-yl)-7-chloro-2,3-dihydrobenzofuran-2-yl)methyl)-3-(4-aminophenyl)acrylamide], the IC50 in the assay with 3T3 cells (setting [1]), in the assay with MS751 cells (setting [2]) and with Z138 cells (setting [3]) was more than 30 µM each time.

Take `O=C(/C=C/c1cccnc1)NCC1Cc2cc(-c3cccc(C(=O)O)c3)cc(Cl)c2O1` (stereo not drawn) [Compound 76, (E)-3-(7-chloro-2-((3-(pyridin-3-yl)acrylamido)methyl)-2,3-dihydrobenzofuran-5-yl)benzoic acid]: the half-inhibitory concentration (IC50) in the assay with 3T3 cells (setting [1]), in the assay on MS751 cells (setting [2]) and with Z138 cells (setting [3]) was 5 to 30 µM throughout.

As for `Cc1cc(Cl)c2c(c1)CC(CNC(=O)/C=C/c1cccnc1)O2` (stereo not drawn) [Compound 275, (E)-N-((7-chloro-5-methyl-2,3-dihydrobenzofuran-2-yl)methyl)-3-(pyridin-3-yl)acrylamide], the values for the concentration for half-maximal inhibition (IC50) in the assay with 3T3 cells (setting [1]), in the assay with MS751 cells (setting [2]) and in the assay on Z138 cells (setting [3]) were more than 30 µM, 5 to 30 µM and 5 to 30 µM, respectively.

Take `CC(=O)c1ccc(-c2cc(Cl)c3c(c2)CC(CNC(=O)/C=C/c2c(C)nn(-c4ccc(F)cc4)c2C)O3)s1` (stereo not drawn) [Compound 208, (E)-N-((5-(5-acetylthiophen-2-yl)-7-chloro-2,3-dihydrobenzofuran-2-yl)methyl)-3-(1-(4-fluorophenyl)-3,5-dimethyl-1H-pyrazol-4-yl)acrylamide]: the figures for the half-maximal inhibitory concentration (IC50) in the assay on 3T3 cells (setting [4]), in the assay on MS751 cells (setting [5]) and with Z138 cells (setting [6]) were more than 30 µM, 5 to 30 µM and 5 to 30 µM, respectively.
